Assay results published in patent US20240279687A1, “PEPTIDE NUCLEIC ACIDS FOR SPATIOTEMPORAL CONTROL OF CRISPR-CAS BINDING” (Yale University, priority 2021, published 2024).
{Lys} = L-lysine residue attached to the PNA terminus

Experiments:
[1] = tested on: Cas9 RNP (FANCF, EMX1, ZSCAN2, CCR5, VEGFA gRNAs); experiment: On-target specificity of Cas9 RNP (ratio of on-target to off-target editing rates); format: cell-based, human
Procedure: (§1) For PNA pre-treatments, 1×10^6 cells and 1 μL of PNA diluted to desired concentration in water were similarly nucleofected using Lonza cell line kits and 4D-Nucleofector. PNA nucleofected cells were resuspended in 1.25 mL of complete media in 1.5 mL tubes and incubated at 37° C. for 2 hours before Cas9 RNP nucleofection as described above. After Cas9 RNP nucleofection cells were seeded in 2 mL of complete media and incubated for 96 hours prior to harvesting and analysis.
(§2) Genomic DNA was purified from 0.5×10^6 cells using Promega ReliaPrep gDNA Tissue Miniprep System (A2052) and eluted in 50 μL of water. Library prep used 100 ng of gDNA input with Ampliseq for Illumina Library Plus kit (20019101, Illumina) and used a custom primer pool designed to amplify a designed panel of genomic targets of interest (Table 9). Libraries were indexed, pooled, and loaded onto a Mid-output (300-cycles, Illumina, FC-420-1004) cartridge for paired-end sequencing on an Illumina Miniseq instrument. FASTQ reads were subjected to quality analysis (Basespace FASTQC) and analyzed for indel frequency using Cas-Analyzer assessment tool (parameters: Comparison range (R)—both ends of full amplicon sequence, Minimum frequency (n)=1). gRNAs used in this study are listed in Table 8, amplicon genomic coordinates listed in Table 9.
In the case of EMX1 ON and OFF target amplicons, both regions were amplified from 200 ng of purified gDNA by Phusion High-Fidelity Polymerase (NEB, M0530S) and pooled and purified using QIAGEN PCR purification kit (28104, Qiagen). Library prep used 200 ng of purified amplicon input with Illumina DNA Prep kit (20025519, Illumina). EMX1 libraries were similarly indexed, pooled, sequenced, and analysed as above.
For pre-annealed PAM-distal PNA experiments, 50 pmol of sgRNA and 50 pmol of PAM-distal 10mer PNAs were incubated in a thermocycler at 37° C. for 30 minutes in a 5 μL reaction in 1×3.1 Buffer (B7203S, NEB) to allow annealing. PNA annealing to sgRNAs was confirmed by gel shift on 5% polyacrylamide gel. 45 pmol of SpCas9 (CP02, PNA BIO) was then added at room temperature and incubated for 10 minutes to allow RNP formation. Resulting reaction was delivered to 1×10^6 K562 cells by a single nucleofection and treated as described above.

[2] = tested on: Cas9 RNP using a sgRNA targeted to the BFP gene; experiment: Cas9 RNP editing of BFP reporter gene in K562-BFP cells (BFP fluorescent drop out, flow cytometry); format: cell-based, human; conditions: for inhibitory effect on Cas9-mediated BFP gene disruption and indel formation: 0-250 pmol nucleofected 2 hours prior to Cas9 RNP
Procedure: (§3) For Cas9 RNP assembly, 50 pmol of sgRNA (IDT, Alt-R CRISPR-Cas9 sgRNA) and 45 pmol of SpCas9 (CPO2, PNA BIO) were incubated at room temperature for 10 minutes in a 5 μL reaction in 1×3.1 Buffer (B7203S, NEB). For nucleofections, 1×10^6 cells, 5 μL Cas9 RNP, and 1 μL of Alt-R Cas9 electroporation enhancer (IDT) were resuspended in 100 μL of Lonza cell line solution (V4XC-2024/V4XC-1024, Lonza) and nucleofected using a Lonza 4D-Nucleofector X unit. Cas9 RNP treated cells were seeded in 2 mL of complete media and incubated for 96 hours prior to harvesting for analysis.
as §1
K562 cells were spun down and resuspended in fresh complete media at 300,000 cells/mL 48 hours prior to analysis. Samples for flow cytometry were fixed in complete media with 1% formaldehyde for 15 minutes before spinning down, resuspending in 300 μL PBS, and filtering through a cell strainer capped tube. Samples were analyzed for BFP and GFP fluorescence using a Cytoflex LX instrument (Beckman Coulter) using PacificBlue and FITC lasers, respectively, and quantification and gating was done using FloJo v10 software. Background fluorescent drop out was determined by measurement of mock nucleofected lines in quadruplicate and subtracted from experimental values to determine reported editing frequency.
10^6 stable BFP-expressing K562 cells were nucleofected (Lonza 4D Nucleofector) with a specified dose of PNA or ssDNA oligo (0-250 pmol). Two hours later, all conditions were nucleofected with 45 pmol of purified Cas9 RNP using a sgRNA targeted to the BFP gene. 72 hours later, cells with BFP fluorescent drop out (via Cas9 indel formation) were quantified by flow cytometry (Beckman Coulter—Cytoflex instrument).
In time-course experiments in FIG. 3D, K562 samples were nucleofected with 5 μL RNP reactions with the addition of 100 pmol of ssODN donor in 1 μL of water. RNP nucleofected samples were incubated at 37° C. in complete media before being spun down and nucleofected with 250 pmol of PNA at specified time points. After PNA delivery cells were seeded in 2 mL of complete media and incubated for 96 hours prior to harvesting and analysis.
10^6 stable BFP-expressing K562 cells were nucleofected (Lonza 4D Nucleofector) with specified dose (0-250 pmol, or 250 pmol if unspecified) of specified PNA with sequences homologous to (antispacer) or identical to (cis-spacer) the BFP gRNA spacer sequence. Two hours later, all conditions were nucleofected with 45 pmol of purified Cas9 RNP using a sgRNA targeted to the BFP gene. 72 hours later, cells with BFP fluorescent drop out (via Cas9 indel formation) were quantified by flow cytometry (Beckman Coulter—Cytoflex instrument).
10^6 stable BFP-expressing K562 cells were nucleofected (Lonza 4D Nucleofector) with 45 pmol of purified Cas9 RNP using a sgRNA targeted to the BFP gene. At each specified time point 250 pmol of BFP Anti-protospacer PNA were introduced via nucleofection. For “Cas9 only” condition there was no second PNA nucleofection and for “0 hrs” 250 pmol of PNA was co-nucleofected with Cas9 in a single reaction. After each nucleofection samples were left in fresh media for the duration of the experiment to acquire edits. 72 hours after the “24 hrs” nucleofection, cells for all conditions with BFP fluorescent drop out (via Cas9 indel formation) were quantified by flow cytometry (Beckman Coulter—Cytoflex instrument).

[3] = tested on: Cas9 RNP using a sgRNA targeted to the HBB gene (R-01); experiment: Cas9 RNP editing at HBB in K562 cells (amplicon sequencing); format: cell-based, human
Procedure: as §3, §1
10^6 stable BFP-expressing K562 cells were nucleofected (Lonza 4D Nucleofector) with a specified dose of BFP cis-protospacer PNA or HBB PNA (0-250 pmol). Two hours later, all conditions were nucleofected with 45 pmol of purified Cas9 RNP using a sgRNA targeted to the BFP gene or targeted to the HBB gene (R-01). 72 hours later, cells with BFP fluorescent drop out (via Cas9 indel formation) were quantified by flow cytometry (Beckman Coulter Cytoflex instrument) for the BFP target (FIG. 3A). For the HBB target (FIG. 3B-3C), 72 hours post-treatment gDNA was extracted (Promega ReliaPrep) and the region of interest was PCR amplified (NEB Phusion). Indel frequency was measured by T7 endonuclease assay (NEB—EnGen Mutation Detection Kit).
as §2

[4] = tested on: 20mer RNA oligonucleotide (spacer sequence designed to target the BFP gene); experiment: UV spectroscopy thermal melting analysis of duplexes; format: binding; conditions: 1 μM each strand, 10 mM sodium phosphate buffer pH 7.4
Procedure: All samples were prepared by mixing a stoichiometric amount of each strand (1 μM) in 10 mM sodium phosphate buffer at pH 7.4 (Table 8). The samples were pre-annealed at 95° C. for 5 mins and gradually cooled to room temperature prior to the melting experiment. UV melting experiments were performed using a Shimadzu UV-3600 Plus UV-Vis-NIR spectrophotometer equipped with a thermoelectrically controlled multicell holder. UV melting spectra were recorded after every 1° C. temperature change by monitoring the absorbance at 260 nm from 20° C. to 110° C. to 20° C., with a heating/cooling ramp rate of 1.0° C./min. The heating and cooling curves were overlapped to confirm reversible denaturation. All spectra were plotted on Origin 2020 and smoothed using a 20-point adjacent averaging algorithm. The first derivative plots of the melting curves were generated to determine the melting temperature for each duplex.

[5] = tested on: dCas9-VPR / POU5F1 sgRNA; experiment: CRISPRa (dCas9-VPR) POU5F1 expression in stable K562 cells, RT-qPCR; format: cell-based, human; conditions: 250 pmol PNA
Procedure: Stable K562-hEF1α-dCas9-VPR line was established by lentiviral transduction using Edit-R purified lentiviral particles (Horizon Discovery) and blasticidin selection (5 μg/mL, A1113903, Gibco). dCas9-VPR integration was confirmed by western blot with CRISPR-Cas9 antibody (7A9-3A3, Novus). dCas9-VPR expressing line was further transduced with Edit-R CRISPRa human POU5F1 sgRNA purified lentiviral particles (VSGH11902, Horizon Discovery, Table 4) and puromycin selection (2 μg/mL, Gibco).
4×10^6 stable dCas9-VRP/POU5F1 sgRNA expressing K562 cells (generated using lentivirus from Horizon Discovery), or K562 cells, were nucleofected with 250 pmol of specified PNA (non-targeting BFP or POU5F1) using a Lonza 4D nucleofector. At each specified time point 500 μL of cells were removed from each condition flask, spun down, and frozen. RNA was extracted from each pellet using QIAGEN Rneasy Mini Kits and cDNA was generated using Applied Biosystems High Capacity cDNA reverse transcription kit. rtPCR reactions were conducted for each sample using a StepOnePLUS Real-Time PCR System (Applied Biosystems) using Taqman Fast Advanced Master Mix and TaqMan gene specific probes for POU5F1 and GAPDH. Expression relative to the untreated parent K562 line was recorded as fold-change and calculated using the ΔΔCT method.
For RNA extractions 0.5×10^6 K562 cells were spun down, washed once with PBS, homogenized using QIAshredder columns (QIAGEN 79656) and processed using QIAGEN RNeasy mini kits (74106) before eluting in 50 μL of water. Resulting RNA was used as input for high-capacity cDNA Reverse Transcription Kit (Applied Biosystems) and resulting reaction was diluted 1:5 with water. RT-qPCR reactions were conducted in triplicate for each sample using a StepOnePLUS Real-Time PCR System (Applied Biosystems) and Taqman Fast Advanced Master Mix (Applied Biosystems) with TaqMan gene specific probes (Table 8). Expression relative to the untreated K562 parent line was recorded as fold-change and calculated from averaged CT values using the ΔΔCT method.

[6] = 150 pmol dose, three replicates

Substance: GCTCGGACTC (all peptide nucleic acid (PNA); further chemistry not fully specified) [EMX1 PAMdist 10 mer PNA]
- specificity ratio versus Cas9 only ([1]; K562, HEK293, and U2OS cell lines, PNA pre-treatment prior to Cas9 RNP nucleofection): significantly increased specificity ratios
- specificity versus pre-treatment approaches ([1]; PNA pre-annealed to sgRNA prior to Cas9 RNP formation, delivered as a single complex, K562): further improved specificity

Substance: KKK-GGGTTAAGGCAATAGCAATA-KKK [GFP Non-Targeting PNA]
- inhibitory effect on Cas9-mediated BFP gene disruption and indel formation ([2]; listed as heterologous GFP PNA): no effect
- inhibitory effect on Cas9-mediated BFP gene disruption and indel formation ([2]; listed as non-targeting (GFP) PNA): entirely ineffective

Substance: CCAACTGCAT (all peptide nucleic acid (PNA); further chemistry not fully specified) [HBB R-01 PAMprox 10 mer PNA, 1 Lysine (K) on either end]
- HBB editing ([3]; 50 pmol PNA (45.2% without PNA)): 0.102%
- mean fold reduction of HBB target editing [3, 6]: 2,372 fold
- total indels detected across 28,104 analyzed amplicons [3, 6]: 6
- fold reduction of HBB target editing ([3]; 1:1 PNA:sgRNA ratio (50 pmol)): 443 fold

Substance: AUGGCGUGCAGUGCUUCAGC (chemistry not given here) [Antispacer RNA (melting study), complementary RNA oligomer (length 20nt), IDT]
- Tm of duplex with RNA spacer sequence [4]: 69 °C

Substance: K-ATGGCGTGCA-K (all peptide nucleic acid (PNA), 5' {Lys}, 3' {Lys}) [BFP PAM-proximal PNA]
- reduction of BFP editing ([2]; 50 pmol dose): 96.0%
- reduction of BFP editing ([2]; 250 pmol dose): 99.7%
- fold reduction in editing ([2]; 1:1 PNA:sgRNA molar ratio (50 pmol)): 24.5 fold
- fold reduction in editing ([2]; 5:1 PNA:sgRNA ratio (250 pmol)): 342.6 fold

Substance: KKK-ATGGCGTGCAGTGCTTCAGC-KKK (all peptide nucleic acid (PNA), 5' {Lys}-{Lys}-{Lys}, 3' {Lys}-{Lys}-{Lys}) [BFP Antispacer PNA]
- inhibitory effect on Cas9-mediated BFP gene disruption and indel formation [2]: robust dose-dependent inhibitory effect
- block of indel formation (NHEJ) and template-mediated editing (HDR) when PNA is introduced after Cas9 RNP ([2]; 250 pmol PNA at time-points up to 24 hours after Cas9 RNP/ssODN nucleofection): rapidly and proportionally block both indel formation (NHEJ) and template-mediated editing (HDR)
- Tm of duplex with RNA spacer sequence [4]: > 100 °C

Substance: K-GTGCTTCAGC-K (all peptide nucleic acid (PNA), 5' {Lys}, 3' {Lys}) [BFP PAM-distal PNA]
- inhibitory effect on Cas9-mediated BFP gene disruption and indel formation [2]: attenuated effect
- reduction of BFP editing ([2]; 50 pmol dose): 10%
- reduction of BFP editing ([2]; 250 pmol dose): 32%

Substance: K-GTGCAGTGCT-K (all peptide nucleic acid (PNA), 5' {Lys}, 3' {Lys}) [BFP PAM-middle PNA]
- fold reduction in editing ([2]; 5:1 PNA:sgRNA ratio (250 pmol)): 32.4 fold

Substance: KKK-CCACCATTAGGCAAACATCC-KKK (all peptide nucleic acid (PNA), 5' {Lys}-{Lys}-{Lys}, 3' {Lys}-{Lys}-{Lys}) [POU5F1 CRISPRa PNA]
- duration of the full effect [5]: 2 to 3 days
- effect on CRISPRa upregulated POU5F1 expression [5]: down to the level of the parental K562 line
- time after treatment at which the effect appears to dissipate [5]: approximately 5 days
- time by which POU5F1 expression dropped to the level of the parent line expression [5]: ≤ 48 h
- time by which expression began to return to its upregulated baseline [5]: ≤ 120 h
